A word on the Ki: it is the dissociation constant of the complex between target and ligand, obtained from inhibition or displacement.

Mcl-1 protein, sequence (Q07820 whole entry): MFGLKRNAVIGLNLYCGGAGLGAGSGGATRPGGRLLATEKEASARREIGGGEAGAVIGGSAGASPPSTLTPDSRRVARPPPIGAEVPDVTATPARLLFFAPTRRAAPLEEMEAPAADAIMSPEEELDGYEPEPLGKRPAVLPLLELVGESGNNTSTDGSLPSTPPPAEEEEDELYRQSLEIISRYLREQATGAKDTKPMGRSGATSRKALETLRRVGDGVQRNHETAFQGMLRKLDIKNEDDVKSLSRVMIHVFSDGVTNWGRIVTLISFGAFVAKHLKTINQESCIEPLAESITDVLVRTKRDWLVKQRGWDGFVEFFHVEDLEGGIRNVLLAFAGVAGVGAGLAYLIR

The experiment addresses Mcl-1 protein (UniProtKB Q07820) (Homo sapiens (Human), UniProt Q07820). In words: Inhibition of Mcl-1 by the fluorescence polarisation assay (Example A, Method A). The format is binding. The following applies: fluorescence polarization assay. A digest of the protocol: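 Protein (5 nM) and fluorescein-tagged peptide tracer (1 nM) incubated with 11-point compound series for 2 h at room temperature in HEPES/NaCl/Tween 20 buffer, pH 7.4, 5% DMSO. Displacement read as decrease in polarisation; IC50 fitted by 4-parameter logistic, converted to Ki (cKi or eKi).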
On to `O=C(O)[C@]1(Nc2cccc(Br)c2)CC[C@@]2(CC1)C(C#CCOc1ccccc1)=Cc1ccccc12` [Example 165, (1r,4r)-4-(3-bromoanilino)-2′-(3-phenoxyprop-1-yn-1-yl)spiro[cyclohexane-1,1′-indene]-4-carboxylic acid], for which the Ki turned out to be 90400 nM.
To `O=C(O)[C@]1(Nc2cccc(Cl)c2)CC[C@]2(CC1)C(CCNc1ccccc1)=Cc1ccccc12` [Example 166, (1r,4r)-2′-(2-anilinoethyl)-4-(3-chloroanilino)spiro[cyclohexane-1,1′-indene]-4-carboxylic acid] belongs 688 nM; to `O=c1ccn(CCCC2Cc3ccccc3[C@]23CC[C@@](Nc2cccc(Cl)c2)(C(=O)O)CC3)cc1` (stereo partly shown) [Example 167, (1r,4r)-4-(3-chloroanilino)-2′-[3-(4-oxopyridin-1 (4H)-yl)propyl]-2′,3′-dihydrospiro[cyclohexane-1,1′-indene]-4-carboxylic acid], 32700 nM; to `O=C(O)[C@]1(Nc2cccc(Cl)c2)CC[C@]2(CC1)C(Cc1ccccc1)=Cc1ccccc12` [Example 168, (1r,4r)-2′-benzyl-4-(3-chloroanilino)spiro[cyclohexane-1,1′-indene]-4-carboxylic acid], 1670 nM.
Next, `O=C(O)[C@]1(Nc2cccc(Cl)c2)CC[C@@]2(CC1)c1ccccc1CC2Cc1ccccc1` (stereo partly shown) [Example 169, (1r,4r)-2′-benzyl-4-(3-chloroanilino)-2′,3′-dihydrospiro[cyclohexane-1,1′-indene]-4-carboxylic acid]: 4770 nM; `O=C(O)[C@]1(Nc2cccc(Cl)c2)CC[C@]2(CC1)C(C#Cc1ccccn1)=Cc1ccccc12` [Example 170, (1s,4s)-4-(3-chloroanilino)-2′-[(pyridin-2-yl)ethynyl]spiro[cyclohexane-1,1′-indene]-4-carboxylic acid]: 1920 nM.
On to `O=C(O)[C@]1(Nc2cccc(Cl)c2)CC[C@]2(CC1)C(CCOc1ccccc1)=Cc1ccccc12` [Example 171, (1r,4r)-4-(3-chloroanilino)-2′-(2-phenoxyethyl)spiro[cyclohexane-1,1′-indene]-4-carboxylic acid], for which the inhibitory constant (Ki) was determined as 51.4 nM.
In the case of `O=C(O)[C@]1(Nc2cccc(Cl)c2)CC[C@]2(CC1)C(C#Cc1ccncc1)=Cc1ccccc12` [Example 173, (1s,4s)-4-(3-chloroanilino)-2′-[(pyridin-4-yl)ethynyl]spiro[cyclohexane-1,1′-indene]-4-carboxylic acid], the Ki was 455 nM.
As for `COc1cc(OCCC2Cc3ccccc3[C@]23CC[C@@](Nc2cccc(Cl)c2)(C(=O)O)CC3)ccn1` (stereo partly shown) [Example 174, (1r,4r)-4-(3-chloroanilino)-2′-{2-[(2-methoxypyridin-4-yl)oxy]ethyl}-2′,3′-dihydrospiro[cyclohexane-1,1′-indene]-4-carboxylic acid], the Ki worked out at 138 nM.
Next, `O=C(O)[C@]1(Nc2cccc(Br)c2)CC[C@@]2(CC1)c1ccccc1CC2CCc1ccccn1` (stereo partly shown) [Example 175, (1r,4r)-4-(3-bromoanilino)-2′-[2-(pyridin-2-yl)ethyl]-2′,3′-dihydrospiro[cyclohexane-1,1′-indene]-4-carboxylic acid]: 1540 nM.
To `O=C(O)[C@]1(Nc2cccc(Cl)c2)CC[C@@]2(CC1)c1ccccc1CC2CCOc1ccccc1` (stereo partly shown) [Example 177, (1r,4r)-4-(3-chloroanilino)-2′-(2-phenoxyethyl)-2′,3′-dihydrospiro[cyclohexane-1,1′-indene]-4-carboxylic acid] belongs 226 nM.
Consider `O=C(O)[C@]1(Nc2cccc(Cl)c2)CC[C@]2(CC1)C(COCc1ccccc1)=Cc1ccccc12` [Example 179, (1s,4s)-2′-[(benzyloxy)methyl]-4-(3-chloroanilino)spiro[cyclohexane-1,1′-indene]-4-carboxylic acid], for which the Ki stood at 506 nM.
Next, `O=C(NCc1ccccc1)C1=Cc2ccccc2[C@]12CC[C@@](Nc1cccc(Cl)c1)(C(=O)O)CC2` [Example 180, (1s,4s)-2′-(benzylcarbamoyl)-4-(3-chloroanilino)spiro[cyclohexane-1,1′-indene]-4-carboxylic acid]: 12800 nM.
Turning to `CN(Cc1ccccc1)C(=O)C1=Cc2ccccc2[C@]12CC[C@@](Nc1cccc(Cl)c1)(C(=O)O)CC2` [Example 181, (1s,4s)-2′-[benzyl(methyl)carbamoyl]-4-(3-chloroanilino)spiro[cyclohexane-1,1′-indene]-4-carboxylic acid], the Ki was found to be 11400 nM.
To `Cc1cncn(CCCC2=Cc3ccccc3[C@]23CC[C@@](Nc2cccc(Cl)c2)(C(=O)O)CC3)c1=O` [Example 182, (1r,4r)-4-(3-chloroanilino)-2′-[3-(5-methyl-6-oxopyrimidin-1 (6H)-yl)propyl]spiro[cyclohexane-1,1′-indene]-4-carboxylic acid] belongs 1620 nM; to `Cc1cncn(CCCC2Cc3ccccc3[C@]23CC[C@@](Nc2cccc(Cl)c2)(C(=O)O)CC3)c1=O` (stereo partly shown) [Example 183, (1r,4r)-4-(3-chloroanilino)-2′-[3-(5-methyl-6-oxopyrimidin-1 (6H)-yl)propyl]-2′,3′-dihydrospiro[cyclohexane-1,1′-indene]-4-carboxylic acid], 2480 nM; to `CN(Cc1ccccc1)CC1=Cc2ccccc2[C@]12CC[C@@](Nc1cccc(Cl)c1)(C(=O)O)CC2` [Example 184, (1s,4s)-2′-{[benzyl(methyl)amino]methyl}-4-(3-chloroanilino)spiro[cyclohexane-1,1′-indene]-4-carboxylic acid], 1230 nM.
To `O=C(O)[C@]1(Nc2cccc(Cl)c2)CC[C@@]2(CC1)c1ccccc1CC2CCOc1cccc2[nH]ccc12` (stereo partly shown) [Example 185, (1r,4r)-4-(3-chloroanilino)-2′-{2-[(1H-indol-4-yl)oxy]ethyl}-2′,3′-dihydrospiro[cyclohexane-1,1′-indene]-4-carboxylic acid] belongs 74 nM.
Next, `O=C(O)[C@]1(Nc2cccc(Cl)c2)CC[C@@]2(CC1)c1ccccc1CC2CCOc1ccnc2ccsc12` (stereo partly shown) [Example 186, (1r,4r)-4-(3-chloroanilino)-2′-{2-[(thieno[3,2-b]pyridin-7-yl)oxy]ethyl}-2′,3′-dihydrospiro[cyclohexane-1,1′-indene]-4-carboxylic acid]: 123 nM.
For the molecule `O=C(O)[C@]1(Nc2cccc(Cl)c2)CC[C@@]2(CC1)c1ccccc1CC2CCOc1ccnc(F)c1` (stereo partly shown) [Example 187, (1r,4r)-4-(3-chloroanilino)-2′-{2-[(2-fluoropyridin-4-yl)oxy]ethyl}-2′,3′-dihydrospiro[cyclohexane-1,1′-indene]-4-carboxylic acid], the Ki amounted to 271 nM.
Next, `O=C(O)[C@]1(Nc2cccc(Cl)c2)CC[C@@]2(CC1)c1ccccc1CC2CCOc1ccncc1F` (stereo partly shown) [Example 188, (1r,4r)-4-(3-chloroanilino)-2′-{2-[(3-fluoropyridin-4-yl)oxy]ethyl}-2′,3′-dihydrospiro[cyclohexane-1,1′-indene]-4-carboxylic acid]: 214 nM; `Cc1cnccc1OCCC1=Cc2ccccc2[C@]12CC[C@@](Nc1cccc(Cl)c1)(C(=O)O)CC2` [Example 189, (1r,4r)-4-(3-chloroanilino)-2′-{2-[(3-methylpyridin-4-yl)oxy]ethyl}spiro[cyclohexane-1,1′-indene]-4-carboxylic acid]: 121 nM; `Cc1cnccc1OCCCOC1=Cc2ccccc2[C@]12CC[C@@](Nc1cccc(Br)c1)(C(=O)O)CC2` [Example 193, (1s,4s)-4-(3-bromoanilino)-2′-{3-[(3-methylpyridin-4-yl)oxy]propoxy}spiro[cyclohexane-1,1′-indene]-4-carboxylic acid]: 531 nM.
For the molecule `O=C(O)[C@]1(Nc2cccc(Cl)c2)CC[C@]2(CC1)C(C#CCCOc1ccnc3ccsc13)=Cc1ccccc12` [Example 195, (1s,4s)-4-(3-chloroanilino)-2′-{4-[(thieno[3,2-b]pyridin-7-yl)oxy]but-1-yn-1-yl}spiro[cyclohexane-1,1′-indene]-4-carboxylic acid], the Ki was found to be 266 nM.
In the case of `O=C(O)[C@]1(Nc2cccc(Cl)c2)CC[C@@]2(CC1)c1ccccc1CC2CCCN1CCOCC1` (stereo partly shown) [Example 196, (1r,4r)-4-(3-chloroanilino)-2′-[3-(morpholin-4-yl)propyl]-2′,3′-dihydrospiro[cyclohexane-1,1′-indene]-4-carboxylic acid], the Ki came to 9470 nM.
Next, `COCCCC1Cc2ccccc2[C@]12CC[C@@](Nc1cccc(Cl)c1)(C(=O)O)CC2` (stereo partly shown) [Example 197, (1r,4r)-4-(3-chloroanilino)-2′-(3-methoxypropyl)-2′,3′-dihydrospiro[cyclohexane-1,1′-indene]-4-carboxylic acid]: 1380 nM; `CN1CCN(CCCC2Cc3ccccc3[C@]23CC[C@@](Nc2cccc(Cl)c2)(C(=O)O)CC3)CC1=O` (stereo partly shown) [Example 198, (1r,4r)-4-(3-chloroanilino)-2′-[3-(4-methyl-3-oxopiperazin-1-yl)propyl]-2′,3′-dihydrospiro[cyclohexane-1,1′-indene]-4-carboxylic acid]: 7480 nM.
Next, `CC1=C(C)[C@]2(CC[C@](Nc3cccc(Br)c3)(C(=O)O)CC2)c2ccccc21` [Example 202, (1r,4r)-4-(3-bromoanilino)-2′,3′-dimethylspiro[cyclohexane-1,1′-indene]-4-carboxylic acid]: 300 nM; `CC1=C(C)[C@]2(CC[C@@](Nc3cccc(Br)c3)(C(=O)O)CC2)c2ccccc21` [Example 203, (1s,4s)-4-(3-bromoanilino)-2′,3′-dimethylspiro[cyclohexane-1,1′-indene]-4-carboxylic acid]: 40100 nM.
To `CC1=C(C(C)C)c2ccccc2[C@]12CC[C@@](Nc1cccc(Br)c1)(C(=O)O)CC2` [Example 204, (1r,4r)-4-(3-bromoanilino)-2′-methyl-3′-(propan-2-yl)spiro[cyclohexane-1,1′-indene]-4-carboxylic acid] belongs 22400 nM; to `CCC1=C(C)[C@]2(CC[C@](Nc3cccc(Cl)c3)(C(=O)O)CC2)c2ccccc21` [Example 205, (1r,4r)-4-(3-chloroanilino)-3′-ethyl-2′-methylspiro[cyclohexane-1,1′-indene]-4-carboxylic acid], 1710 nM.

The values above are taken from patent US20240150293A1, “SPIROCYCLOHEXANE DERIVATIVES, PHARMACEUTICAL COMPOSITIONS CONTAINING THEM AND THEIR USES AS ANTI-APOPTOTIC INHIBITORS” (LES LABORATOIRES SERVIER, priority 2021, published 2024).
